Like-named read-outs stand apart in the source and are kept apart here. Square brackets hold non-standard residues; d marks the D form. Peptide text beside a SMILES is read from it. NMeTrp(1-(4-Br-benzyl)) = CN[C@@H](Cc1cn(Cc2ccc(Br)cc2)c2ccccc12)C(=O)O; Butanoyl(2R-oxy,4-CN) = N#CCC[C@@H](O)C(=O)O; Abu(4,4,4-F3) = N[C@@H](CC(F)(F)F)C(=O)O; NMeL = CN[C@@H](CC(C)C)C(=O)O; NMeA = CN[C@@H](C)C(=O)O
Biological target: T1, Sec61 (Homo sapiens, UniProt P61619)
T1 construct: endogenous in cells
Test: signal peptide-GLuc (SP-GLuc) reporter panel, 89 constructs
Format: cell-based
Settings: read-out: IC50
From the text: The heat map depicts IC50 values calculated from each SP-GLuc dose–response curve. d, Arthritis was induced in BALB/c mice with antibodies specific for type II collagen (mAb) on day 0 and endotoxin on day 3. On day 4, when the disease was present in all animals, mice were randomized and treated for 2 weeks with thrice weekly (QODx3) or weekly (QW) intravenous administration of vehicle or KZR-8445 or intraperitoneal administration of dexamethasone. Clinical scores (0–4 per paw; n = 10 per group) and body weights were followed until day 14. Data are presented as mean values ± s.d. mAb, monoclonal antibody. Source data
To investigate the effects of KZR-8445 on secretory and membrane protein biogenesis and to establish Sec61α as the relevant target, we quantified the secretion of a doxycycline-inducible Gaussia luciferase (GLuc) reporter fused to the C-terminus of two full-length pro-inflammatory cytokines, interleukin-2 (IL-2) (which contains a cleavable signal peptide) and tumor necrosis factor-alpha (TNFα) (which contains an N-terminal transmembrane anchor). […] KZR-8445 is structurally related to CT8, which discriminates among Sec61 clients based largely on their N-terminal signal peptide. […] We also directly compared KZR-8445 to mycolactone A/B, a structurally distinct and relatively client-nonselective Sec61 inhibitor[8],[25], for their ability to discriminate between vascular cell adhesion molecule (VCAM) and preprolactin (pPL) signal peptides.

T1 sequence (P61619 whole entry): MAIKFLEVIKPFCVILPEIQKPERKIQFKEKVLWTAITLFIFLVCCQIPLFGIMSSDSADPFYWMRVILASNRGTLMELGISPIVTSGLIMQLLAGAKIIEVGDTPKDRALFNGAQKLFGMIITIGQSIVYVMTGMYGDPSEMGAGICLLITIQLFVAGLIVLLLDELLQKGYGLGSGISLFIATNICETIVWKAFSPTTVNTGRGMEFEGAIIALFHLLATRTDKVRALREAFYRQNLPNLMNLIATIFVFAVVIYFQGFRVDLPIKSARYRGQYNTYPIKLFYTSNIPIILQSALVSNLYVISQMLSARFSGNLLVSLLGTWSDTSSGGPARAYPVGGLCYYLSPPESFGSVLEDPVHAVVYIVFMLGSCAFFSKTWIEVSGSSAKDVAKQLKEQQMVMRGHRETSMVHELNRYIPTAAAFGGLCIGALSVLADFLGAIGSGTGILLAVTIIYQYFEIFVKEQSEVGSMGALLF
T1 sequence (P60059 whole entry, further chain): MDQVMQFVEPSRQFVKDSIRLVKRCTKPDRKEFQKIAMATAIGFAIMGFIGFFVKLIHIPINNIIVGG
T1 sequence (P60468 whole entry, further chain): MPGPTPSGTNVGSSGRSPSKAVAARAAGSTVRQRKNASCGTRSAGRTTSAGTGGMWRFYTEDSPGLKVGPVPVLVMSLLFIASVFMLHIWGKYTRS

## CC(C)C[C@@H]1NC(=O)[C@H](Cc2cn(Cc3ccc(Br)cc3)c3ccccc23)N(C)C(=O)[C@H](CC(F)(F)F)NC(=O)[C@H](CC(C)C)N(C)C(=O)[C@H](CC(F)(F)F)NC(=O)[C@@H](CCC#N)OC(=O)[C@H](C)N(C)C1=O [KZR-0508445] (cyclo(L[NMeA][Butanoyl(2R-oxy,4-CN)][Abu(4,4,4-F3)][NMeL][Abu(4,4,4-F3)][NMeTrp(1-(4-Br-benzyl))]))
ADPGK signal peptide-GLuc reporter
  IC50: 540 nM
ANGPTL3 signal peptide-GLuc reporter
  IC50: 49.4 nM
APOC1 signal peptide-GLuc reporter
  IC50: 135 nM
APP signal peptide-GLuc reporter
  IC50: 449 nM
AXL signal peptide-GLuc reporter
  IC50: 13.8 nM
BCAN signal peptide-GLuc reporter
  IC50: 142 nM
C1S signal peptide-GLuc reporter
  IC50: 383 nM
CALCA signal peptide-GLuc reporter
  IC50: 721 nM
CALCB signal peptide-GLuc reporter
  IC50: 972 nM
CD40 signal peptide-GLuc reporter
  IC50: 11300 nM
CD47 signal peptide-GLuc reporter
  IC50: 373 nM
CD96 signal peptide-GLuc reporter
  IC50: 29.2 nM
CD274 signal peptide-GLuc reporter
  IC50: 93.3 nM
CDH1 signal peptide-GLuc reporter
  IC50: 811 nM
CDH2 signal peptide-GLuc reporter
  IC50: 15.5 nM
CDH5 signal peptide-GLuc reporter
  IC50: 76 nM
CNPY2 signal peptide-GLuc reporter
  IC50: 394 nM
CPD signal peptide-GLuc reporter
  IC50: 694 nM
CR1L signal peptide-GLuc reporter
  IC50: 61.3 nM
CSF2RB signal peptide-GLuc reporter
  IC50: 652 nM
CTLA4 signal peptide-GLuc reporter
  IC50: 343 nM
DDRGK1 signal peptide-GLuc reporter
  IC50: 1850 nM
DMKN signal peptide-GLuc reporter
  IC50: 2630 nM
DNAJB11 signal peptide-GLuc reporter
  IC50: 4360 nM
ERBB2 signal peptide-GLuc reporter
  IC50: 536 nM
F3 signal peptide-GLuc reporter
  IC50: 162 nM
FGF23 signal peptide-GLuc reporter
  IC50: 28.2 nM
FLT3 signal peptide-GLuc reporter
  IC50: 360 nM
FNDC10 signal peptide-GLuc reporter
  IC50: 726 nM
FURIN signal peptide-GLuc reporter
  IC50: 4740 nM
GAS6 signal peptide-GLuc reporter
  IC50: 118 nM
HJV signal peptide-GLuc reporter
  IC50: 427 nM
HLA-G signal peptide-GLuc reporter
  IC50: 39.2 nM
HSPA13 signal peptide-GLuc reporter
  IC50: 1110 nM
IGF1R signal peptide-GLuc reporter
  IC50: 814 nM
IL1RAP signal peptide-GLuc reporter
  IC50: 101 nM
IL4R signal peptide-GLuc reporter
  IC50: 32 nM
IL4 signal peptide-GLuc reporter
  IC50: 359 nM
IL5RA signal peptide-GLuc reporter
  IC50: 1320 nM
IL5 signal peptide-GLuc reporter
  IC50: 1300 nM
IL6R signal peptide-GLuc reporter
  IC50: 92.3 nM
IL6ST signal peptide-GLuc reporter
  IC50: 56.5 nM
IL6 signal peptide-GLuc reporter
  IC50: 155 nM
IL7 signal peptide-GLuc reporter
  IC50: 5.23 nM
IL10 signal peptide-GLuc reporter
  IC50: 434 nM
IL11 signal peptide-GLuc reporter
  IC50: 183 nM
IL12B signal peptide-GLuc reporter
  IC50: 109 nM
IL12RB1 signal peptide-GLuc reporter
  IC50: 64.4 nM
IL13 signal peptide-GLuc reporter
  IC50: 59.1 nM
IL15RA signal peptide-GLuc reporter
  IC50: 294 nM
IL15 signal peptide-GLuc reporter
  IC50: 116 nM
IL17A signal peptide-GLuc reporter
  IC50: 318 nM
IL17F signal peptide-GLuc reporter
  IC50: 228 nM
IL17RA signal peptide-GLuc reporter
  IC50: 408 nM
IL23A signal peptide-GLuc reporter
  IC50: 425 nM
IL23R signal peptide-GLuc reporter
  IC50: 366 nM
ITGA3 signal peptide-GLuc reporter
  IC50: 18300 nM
ITGB3 signal peptide-GLuc reporter
  IC50: 106 nM
ITGB5 signal peptide-GLuc reporter
  IC50: 89.1 nM
